Experimental findings from ChEMBL document CHEMBL4118095, “Conjugation of Paclitaxel to Hybrid Peptide Carrier and Biological Evaluation in Jurkat and A549 Cancer Cell Lines” (ACS Med Chem Lett, 2017) are described below.

This assay concerns A549. The assay can be described thus: Cytotoxicity against human A549 cells measured after 24 hrs. In kind it is functional, cell-based. The settings on record: A549, 24 h.

Each structure is given as a SMILES string.

`CC(=O)O[C@H]1C(=O)[C@@]2(C)[C@H]([C@H](OC(=O)c3ccccc3)[C@]3(O)C[C@H](OC(=O)[C@H](O)[C@@H](NC(=O)c4ccccc4)c4ccccc4)C(C)=C1C3(C)C)[C@]1(OC(C)=O)CO[C@@H]1C[C@@H]2O` [PACLITAXEL] gave a half-maximal inhibitory concentration (IC50) of 4.1 nM.

What is called IC50 is the midpoint of a concentration-inhibition curve. A lower IC50 goes with greater potency in that assay.
